Assays:
Mef2c-het mice = assay: Immunohistochemistry and stereological cell counting in hippocampus after chronic treatment; assay type: in vivo, mouse; conditions: optical dissector
Excerpt: Mef2c heterozygous knockout (Mef2c-het) mice were created by crossing mice carrying the conventional exon 2-deleted allele of Mef2c (Mef2c^Δ2) with their WT littermates. All procedures for maintaining and using these mice were approved by the Institutional Animal Care and Use Committee (IACUC) at the Sanford Burnham Prebys Medical Discovery Institute. In this study, only male mice were used for the behavioral assays to insure uniformity (either with or without drug treatment). Chronic treatment with memantine, NitroSynapsin (both at 4.6 μmol/kg body weight) or vehicle (PBS) was administered via i.p. injection, twice a day for at least 3 months, starting at ˜2.5 weeks of age. This age was chosen because mice are still juveniles and thus treatment could begin in human at an equivalent stage.
Mice were perfused with PBS buffer and then 2% paraformaldehyde in PBS (PFA).
After perfusion, brains were removed and placed into 2% PFA overnight for post-fixation and then sunk in 30% sucrose in PBS prior to freezing. Cryostat sections were cut at a thickness of 15 μm. Sections were soaked in Antigen Unmasking Solution (Vector) and microwaved for 30 s, followed by permeabilization with 0.25% Triton X-100 in PBS for 15 min. Primary antibodies were incubated for 16 h at 4° C. and fluorescence-conjugated secondary antibodies for 2 h at 25° C. Numerous unstained cells in each field served as an internal control for staining specificity. Primary antibodies included: NeuN (mouse, EMD Millipore), activated caspase-3 (rabbit, Cell Signaling), VGLUT1 (guinea pig, SYSY), VGLUT2 (rabbit, SYSY), VGAT (mouse, SYSY), synaptophysin (mouse, Sigma), GFAP (mouse, Sigma), PCNA (mouse, Santa Cruz), DCX (goat, Santa Cruz). TUNEL assay was performed to assess apoptosis using the Roche In Situ Cell Death Detection Kit per vender's instruction. The number of cells positive or percent area occupied by NeuN, activated caspase-3, TUNEL, GFAP, PCNA, or DCX was counted in specific brain regions using an optical dissector, or estimated by quantitative confocal immunohistochemistry or optical density, as described previously.

[1] = system: p38 MAPK/MAPKAPK2/TSC2/mTORC1/S6K1 cascade; assay: Western blots of eNMDAR-triggered signaling; assay type: cell-based; conditions: 10 μM
Excerpt: This experiment was replicated 4 times with similar results and quantified in FIG. 20C.

Tsc2+/- mice [2] = assay: Quantitative confocal immunohistochemistry of synaptophysin (SY38) in hippocampus; assay type: in vivo, mouse; conditions: i.p. loading 92 μmol/kg then 4.6 μmol/kg twice daily, two and a half days
Excerpt: To determine the effects of […] antagonists on the brain histology of Tsc2^+/- mice, quantitative confocal immunohistochemistry was used to analyze coronal brain slices from 3-month-old wild-type (WT) and Tsc2^+/- mice that had been treated for two and a half days with vehicle, memantine or NitroSynapsin. Tsc2+/- mice on the C57Bl/6J background received via the intraperitoneal route either vehicle or a loading dose of 92 μmol/kg of memantine or NitroSynapsin, followed by 4.6 μmol/kg of drug twice daily for two-and-a-half-days, with the last dose 3 hours prior to the behavioral training session (for a total of five drug injections). This dosing regimen yields an effective concentration of drug at NMDARs in the brain of 1-10 μM.

Tsc2+/- mice [3] = assay: Fear conditioning test; assay type: in vivo, mouse; conditions: two-and-a-half-day treatment, last dose 3 hours before training
Excerpt: To determine the effects of eNMDAR antagonists on the brain histology of Tsc2^+/− mice, quantitative confocal immunohistochemistry was used to analyze coronal brain slices from 3-month-old wild-type (WT) and Tsc2^+/− mice that had been treated for two and a half days with vehicle, memantine or NitroSynapsin. Tsc2+/− mice on the C57Bl/6J background received via the intraperitoneal route either vehicle or a loading dose of 92 μmol/kg of memantine or NitroSynapsin, followed by 4.6 μmol/kg of drug twice daily for two-and-a-half-days, with the last dose 3 hours prior to the behavioral training session (for a total of five drug injections). This dosing regimen yields an effective concentration of drug at NMDARs in the brain of 1-10 μM.
Fear conditioning tests were performed on three-month-old Tsc2^+/+ and Tsc2^+/− mice to explore the effects of eNMDAR antagonists on anxiety, and learning and memory deficits in Tsc2^+/− mice. Vehicle, memantine or NitroSynapsin were administered for two and a half days, with the last dose of drug occurring 3-hours prior to the first training session. […] Freezing time of three-month-old WT and Tsc2^+/− transgenic mice treated with vehicle, memantine or NitroSynapsin in fear-conditioning trials. […] Values are mean+s.e.m. (n=7-12 mice per group). […]

[4] = Fung and Hardan 2015; cited from earlier work

CC12CC3CC(C)(C1)CC(N)(C3)C2 [memantine, reference compound]
total number of NeuN+ cells in hippocampus (Mef2c-het mice): but not memantine (M), was significantly greater than in vehicle (V)-treated mice | phosphorylation/activation of the p38 MAPK/MAPKAPK2/TSC2/mTORC1/S6K1 cascade on eNMDAR stimulation [1]: reduced this signaling | synaptophysin (SY38) staining in hippocampus (% area) (Tsc2+/- mice [2]): not statistically significant | context discrimination (freezing time, training vs novel context) (Tsc2+/- mice [3]): failed to mitigate this deficit | outcome in human clinical trials for ASD/IDD [4]: failed in human clinical trials

From US11529319B2, “Methods and compositions for treating neurological conditions” (priority 2017, dated 2022)
